As a reminder, the MIC is the least concentration at which growth counts as inhibited.

The first assay relates to Escherichia coli (ATCC25922) or Staphylococcus aureus (ATCC25923). Put plainly: Antibacterial MIC, microdilution method in Mueller-Hinton medium. Format: cell-based. As to conditions: Escherichia coli, 18 h, MIC in E. coli or S. aureus; two-fold serial dilutions 64 to 0.5 μg/ml in duplicate; 18 hours of incubation at 35° C.; read-out: Potency (MIC). The method in brief:
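Two-fold serial dilutions from 64 to 0.5 μg/ml, in duplicate, by broth microdilution in Mueller-Hinton medium (NCCLS M7-A5). MIC taken as the lowest concentration preventing visible growth after 18 h at 35° C.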
On the technique in general: Broth dilution looks for growth in wells or tubes with falling amounts of substance.
For the compound `Cl.N[C@@H]1C[C@H](N)CN(c2nc(Nc3cccc(Br)c3)nc(N3C[C@H](N)C[C@H](N)C3)n2)C1` [N-(3-bromo-phenyl)-4,6-Bis-((3R,5S)-3,5-diamino-piperidin-1-yl)-[1,3,5]triazine-2-amine], the minimal inhibitory concentration (MIC) was under 64 µg/mL.

For the compound `C#Cc1cccc(Nc2nc(N3CCCCC3)nc(N3CCCCC3)n2)c1.Cl` [N-(3-ethylnyl-phenyl)-4,6-Bis-((3R,5S)-3,5-diamino-piperidin-1-yl)-[1,3,5]triazine-2-amine], the minimal inhibitory concentration (MIC) was over 64 µg/mL.

As to `CC(C)C(=O)Nc1ccc(Nc2nc(N3C[C@H](N)C[C@H](N)C3)nc(N3C[C@H](N)C[C@H](N)C3)n2)cc1O` [N-(3-hydroxy-4-isobutyrylamino-phenyl)-4,6-Bis-((3R,5S)-3,5-diamino-piperidin-1-yl)-[1,3,5]triazine-2-amine], the MIC is over 64 µg/mL.

With `N[C@@H]1C[C@H](N)CN(c2nc(Nc3ccc(NC(=O)Cc4ccccc4)c(O)c3)nc(N3C[C@H](N)C[C@H](N)C3)n2)C1` [N-(3-hydroxy-4-phenylacetylamino-phenyl)-4,6-Bis-((3R,5S)-3,5-diamino-piperidin-1-yl)-[1,3,5]triazine-2-amine], the minimum inhibitory concentration (MIC) is under 64 µg/mL.

With `CCC(=O)Nc1ccc(Nc2nc(N3C[C@H](N)C[C@H](N)C3)nc(N3C[C@H](N)C[C@H](N)C3)n2)cc1O` [N-(3-hydroxy-4-propionylamino-phenyl)-4,6-Bis-((3R,5S)-3,5-diamino-piperidin-1-yl)-[1,3,5]triazine-2-amine], the MIC was under 64 µg/mL.

With `CSc1cccc(Nc2nc(N3C[C@H](N)C[C@H](N)C3)nc(N3C[C@H](N)C[C@H](N)C3)n2)c1.Cl` [N-(3-methyylsulfanyl-phenyl)-4,6-Bis-((3R,5S)-3,5-diamino-piperidin-1-yl)-[1,3,5]triazine-2-amine], the MIC is under 64 µg/mL.

As to `N[C@@H]1C[C@H](N)CN(c2nc(Nc3cccc(OC(F)(F)F)c3)nc(N3C[C@H](N)C[C@H](N)C3)n2)C1` [N-(3-trifluoromethoxy-phenyl)-4,6-Bis-((3R,5S)-3,5-diamino-piperidin-1-yl)-[1,3,5]triazine-2-amine], the MIC was over 64 µg/mL.

For the compound `Cl.N[C@@H]1C[C@H](N)CN(c2nc(Nc3cccc(C(F)(F)F)c3)nc(N3C[C@H](N)C[C@H](N)C3)n2)C1` [N-(3-trifluoromethyl-phenyl)-4,6-Bis-((3R,5S)-3,5-diamino-piperidin-1-yl)-[1,3,5]triazine-2-amine], the MIC was under 64 µg/mL.

In the case of `N[C@@H]1C[C@H](N)CN(c2nc(NNc3ccc([N+](=O)[O-])cc3[N+](=O)[O-])nc(N3C[C@H](N)C[C@H](N)C3)n2)C1` [N-(4,6-Bis-((3R,5S)-3,5-diamino-piperidin-1-yl)-[1,3,5]triazin-2-yl)-N′-(2,4-Dinitro-phenyl)-hydrazine], the MIC was over 64 µg/mL.

`Cl.N[C@@H]1C[C@H](N)CN(c2nc(NNc3cc(Cl)ccc3Cl)nc(N3C[C@H](N)C[C@H](N)C3)n2)C1` [N-(4,6-Bis-((3R,5S)-3,5-diamino-piperidin-1-yl)-[1,3,5]triazin-2-yl)-N′-(2,5-Dichloro-phenyl)-hydrazine]: the minimal inhibitory concentration (MIC) was under 64 µg/mL.

For `Cc1csc2c(NNc3nc(N4C[C@H](N)C[C@H](N)C4)nc(N4C[C@H](N)C[C@H](N)C4)n3)ncnc12.Cl` [N-(4,6-Bis-((3R,5S)-3,5-diamino-piperidin-1-yl)-[1,3,5]triazin-2-yl)-N′-(7-Methyl-thieno[3,2-d]pyrimidin-4-yl)-hydrazine], the minimum inhibitory concentration (MIC) was over 64 µg/mL.

Staying with this assay, now noted: Escherichia coli, 18 h, read-out: Potency (MIC).
As for `N[C@@H]1C[C@H](N)CN(c2nc(Nc3cccc(I)c3)nc(N3C[C@H](N)C[C@H](N)C3)n2)C1` [N-(3-Iodo-phenyl)-4,6-Bis-((3R,5S)-3,5-diamino-piperidin-1-yl)-[1,3,5]triazine-2-amine], the MIC was under 64 µg/mL.

For the compound `Cc1c(Cl)cccc1CNc1nc(N2C[C@H](N)C[C@H](N)C2)nc(N2C[C@H](N)C[C@H](N)C2)n1` [N-(3-chloro-2-methyl-benzyl)-4,6-Bis-((3R,5S)-3,5-diamino-piperidin-1-yl)-[1,3,5]triazine-2-amine], the minimal inhibitory concentration (MIC) is over 64 µg/mL.

Consider `N[C@@H]1C[C@H](N)CN(c2nc(Nc3ccc([N+](=O)[O-])c(Cl)c3)nc(N3C[C@H](N)C[C@H](N)C3)n2)C1` [N-(3-chloro-4-nitro-phenyl)-4,6-Bis-((3R,5S)-3,5-diamino-piperidin-1-yl)-[1,3,5]triazine-2-amine], for which the minimal inhibitory concentration (MIC) was under 16 µg/mL.

As to `CN(C)c1cccc(Nc2nc(N3C[C@H](N)C[C@H](N)C3)nc(N3C[C@H](N)C[C@H](N)C3)n2)c1` [N-(3-dimethylamino-phenyl)-4,6-Bis-((3R,5S)-3,5-diamino-piperidin-1-yl)-[1,3,5]triazine-2-amine], the MIC was over 64 µg/mL.

On to `N[C@@H]1C[C@H](N)CN(c2nc(Nc3ccc(C(=O)Nc4ccc(S(=O)(=O)Nc5ccc6cn[nH]c6c5)cc4)c(O)c3)nc(N3C[C@H](N)C[C@H](N)C3)n2)C1` [N-(3-hydroxy-4-[4-(1H-indazol-6-ylsulfamoyl)-phenylcarbamoyl]-phenyl)-4,6-Bis-((3R,5S)-3,5-diamino-piperidin-1-yl)-[1,3,5]triazine-2-amine], for which the MIC is under 64 µg/mL.

With `N[C@@H]1C[C@H](N)CN(c2nc(Nc3cccc(CO)c3)nc(N3C[C@H](N)C[C@H](N)C3)n2)C1` [N-(3-hydroxymethyl-phenyl)-4,6-Bis-((3R,5S)-3,5-diamino-piperidin-1-yl)-[1,3,5]triazine-2-amine], the MIC is over 64 µg/mL.

On to `N[C@@H]1C[C@H](N)CN(c2nc(NCCCn3ccnc3)nc(N3C[C@H](N)C[C@H](N)C3)n2)C1` [N-(3-imidazol-1-yl-propyl)-4,6-Bis-((3R,5S)-3,5-diamino-piperidin-1-yl)-[1,3,5]triazine-2-amine], for which the MIC was over 64 µg/mL.

For `Cc1cc(Nc2nc(N3C[C@H](N)C[C@H](N)C3)nc(N3C[C@H](N)C[C@H](N)C3)n2)ccc1[N+](=O)[O-]` [N-(3-methyl-4-nitro-phenyl)-4,6-Bis-((3R,5S)-3,5-diamino-piperidin-1-yl)-[1,3,5]triazine-2-amine], the MIC was under 64 µg/mL.

With `CNC(=S)NNc1nc(N2C[C@H](N)C[C@H](N)C2)nc(N2C[C@H](N)C[C@H](N)C2)n1` [N-(3-methyl-thioureido)-4,6-Bis-((3R,5S)-3,5-diamino-piperidin-1-yl)-[1,3,5]triazine-2-amine], the minimal inhibitory concentration (MIC) is over 64 µg/mL.

On to `N[C@@H]1C[C@H](N)CN(c2nc(Nc3cccc([N+](=O)[O-])c3)nc(N3C[C@H](N)C[C@H](N)C3)n2)C1` [N-(3-nitro-phenyl)-4,6-Bis-((3R,5S)-3,5-diamino-piperidin-1-yl)-[1,3,5]triazine-2-amine], for which the MIC was over 64 µg/mL.

`N[C@@H]1C[C@H](N)CN(c2nc(NNC3=NCCCN3)nc(N3C[C@H](N)C[C@H](N)C3)n2)C1` [N-(4,6-Bis-((3R,5S)-3,5-diamino-piperidin-1-yl)-[1,3,5]triazin-2-yl)-N′-(1,4,5,6-tetrahydro-pyrimidin-2-yl)-hydrazine]: the MIC was over 64 µg/mL.

For the compound `N[C@@H]1C[C@H](N)CN(c2nc(NNc3ccccc3F)nc(N3C[C@H](N)C[C@H](N)C3)n2)C1` [N-(4,6-Bis-((3R,5S)-3,5-diamino-piperidin-1-yl)-[1,3,5]triazin-2-yl)-N′-(2-Fluoro-phenyl)-hydrazine], the minimum inhibitory concentration (MIC) was over 64 µg/mL.

On to `N[C@@H]1C[C@H](N)CN(c2nc(NNc3cc(Cl)cc(Cl)c3)nc(N3C[C@H](N)C[C@H](N)C3)n2)C1` [N-(4,6-Bis-((3R,5S)-3,5-diamino-piperidin-1-yl)-[1,3,5]triazin-2-yl)-N′-(3,5-Dichloro-phenyl)-hydrazine], for which the MIC was under 64 µg/mL.

With `N[C@@H]1C[C@H](N)CN(c2nc(NNc3cccc(Cl)c3)nc(N3C[C@H](N)C[C@H](N)C3)n2)C1` [N-(4,6-Bis-((3R,5S)-3,5-diamino-piperidin-1-yl)-[1,3,5]triazin-2-yl)-N′-(3-Chloro-phenyl)-hydrazine], the minimal inhibitory concentration (MIC) was under 64 µg/mL.

On to `N[C@@H]1C[C@H](N)CN(c2nc(NNc3cccc(F)c3)nc(N3C[C@H](N)C[C@H](N)C3)n2)C1` [N-(4,6-Bis-((3R,5S)-3,5-diamino-piperidin-1-yl)-[1,3,5]triazin-2-yl)-N′-(3-Fluoro-phenyl)-hydrazine], for which the MIC is over 64 µg/mL.

As for `N[C@@H]1C[C@H](N)CN(c2nc(NNc3cccc(C(F)(F)F)c3)nc(N3C[C@H](N)C[C@H](N)C3)n2)C1` [N-(4,6-Bis-((3R,5S)-3,5-diamino-piperidin-1-yl)-[1,3,5]triazin-2-yl)-N′-(3-Trifluoromethyl-phenyl)-hydrazine], the MIC was under 64 µg/mL.

As to `N[C@@H]1C[C@H](N)CN(c2nc(NNc3ccc(F)cc3)nc(N3C[C@H](N)C[C@H](N)C3)n2)C1` [N-(4,6-Bis-((3R,5S)-3,5-diamino-piperidin-1-yl)-[1,3,5]triazin-2-yl)-N′-(4-Fluoro-phenyl)-hydrazine], the MIC was under 64 µg/mL.

In the case of `N[C@@H]1C[C@H](N)CN(c2nc(NNc3ccccc3)nc(N3C[C@H](N)C[C@H](N)C3)n2)C1` [N-(4,6-Bis-((3R,5S)-3,5-diamino-piperidin-1-yl)-[1,3,5]triazin-2-yl)-N′-Phenyl-hydrazine], the MIC is over 64 µg/mL.

For the compound `N[C@@H]1C[C@H](N)CN(c2nc(NNc3ccccn3)nc(N3C[C@H](N)C[C@H](N)C3)n2)C1` [N-(4,6-Bis-((3R,5S)-3,5-diamino-piperidin-1-yl)-[1,3,5]triazin-2-yl)-N′-Pyridin-2-yl-hydrazine], the MIC was over 64 µg/mL.

Turning to `Cc1cccc(NNc2nc(N3C[C@H](N)C[C@H](N)C3)nc(N3C[C@H](N)C[C@H](N)C3)n2)c1` [N-(4,6-Bis-((3R,5S)-3,5-diamino-piperidin-1-yl)-[1,3,5]triazin-2-yl)-N′-m-Tolyl-hydrazine], the MIC was under 64 µg/mL.

As to `Cc1ccccc1NNc1nc(N2C[C@H](N)C[C@H](N)C2)nc(N2C[C@H](N)C[C@H](N)C2)n1` [N-(4,6-Bis-((3R,5S)-3,5-diamino-piperidin-1-yl)-[1,3,5]triazin-2-yl)-N′-o-Tolyl-hydrazine], the MIC was under 64 µg/mL.

Source of the values: patent US7223759B2, “Antibacterial 3,5-diaminopiperidine-substituted aromatic and heteroaromatic compounds” (Anadys Pharmaceuticals, Inc., priority 2003, dated 2007).
